Patent US20050119231A1, “Quinolone antibacterial agents” (priority 2003, published 2005)
≈ marks a conversion by molar mass, not a printed value.

Assays:
Test in all cases: Antibacterial microtitration assay (Test A), MIC
Assay type in all cases: cell-based
E. faecalis MGH-2 = settings: Enterococcus faecalis, MGH2; Gram Positive Bacteria; strain MGH-2; read-out: Minimum Inhibitory Concentrations E. faecalis MGH-2
Experimental: (§1) Test A—Antibacterial Assays
(§2) The compounds of the present invention were tested against an assortment of Gram-negative and Gram-positive organisms using standard microtitration techniques (Cohen et. al., Antimicrob., 1985;28:766; Heifetz, et. al., Antimicrob., 1974;6:124).

S pyogenes C203 = settings: Gram Positive Bacteria; strain C203; read-out: Minimum Inhibitory Concentrations S pyogenes C203
Experimental: as §1, §2

S. aureus UC-76 = settings: Staphylococcus aureus, UC76; Gram Positive Bacteria; strain UC-76; read-out: Minimum Inhibitory Concentrations S. aureus UC-76
Experimental: as §1, §2

S. pneumo SV-1 = settings: Streptococcus pneumoniae, SV1; Gram Positive Bacteria; strain SV-1; read-out: Minimum Inhibitory Concentrations S. pneumo SV-1
Experimental: as §1, §2

E. coli EC-2549 = settings: Escherichia coli, EC2549; Gram Negative Bacteria; strain EC-2549; read-out: Minimum Inhibitory Concentrations E. coli EC-2549
Experimental: as §1, §2

H. influenzae HI-3542 = settings: Haemophilus influenzae, HI3542; Gram Negative Bacteria; strain HI-3542; read-out: Minimum Inhibitory Concentrations H. influenzae HI-3542
Experimental: as §1, §2

M. catarrhalis BC-3531 = settings: Moraxella catarrhalis, BC3531; Gram Negative Bacteria; strain BC-3531; read-out: Minimum Inhibitory Concentrations M. catarrhalis BC-3531
Experimental: as §1, §2

Row | MIC (E. faecalis MGH-2) [mg/L] | MIC (S pyogenes C203) [mg/L] | MIC (S. aureus UC-76) [mg/L] | MIC (S. pneumo SV-1) [mg/L] | MIC (E. coli EC-2549) [mg/L] | MIC (H. influenzae HI-3542) [mg/L] | MIC (M. catarrhalis BC-3531) [mg/L] | SMILES
1 | 8 (≈ 23.7 µM) | 8 (≈ 23.7 µM) | 2 (≈ 5.93 µM) | 8 (≈ 23.7 µM) |  |  |  | Nn1c(=O)c2cc(F)c(N3C[C@@H](O)[C@@H](O)C3)nc2n(C2CC2)c1=O [drawing 337]
2 |  |  |  |  | 4 (≈ 11.3 µM) | 0.5 (≈ 1.42 µM) | 1 (≈ 2.83 µM) | Nn1c(=O)c2cc(F)c(N3C[C@H](CO)[C@H](F)C3)nc2n(C2CC2)c1=O [drawing 334]
3 | 4 (≈ 10.6 µM) | 4 (≈ 10.6 µM) | 0.5 (≈ 1.32 µM) | 2 (≈ 5.29 µM) |  |  |  | COc1c(N2CCC(CCO)C2)c(F)cc2c(=O)n(N)c(=O)n(C3CC3)c12 (stereo not shown) [drawing 324]
4 | 8 (≈ 18.5 µM) | 8 (≈ 18.5 µM) | 0.5 (≈ 1.16 µM) | 8 (≈ 18.5 µM) |  |  |  | COc1c(N2CCC(C(O)c3ncco3)C2)c(F)cc2c(=O)n(N)c(=O)n(C3CC3)c12 (stereo not shown) [drawing 321]
5 | 0.06 (≈ 0.153 µM) | 0.03 (≈ 0.0763 µM) | 0.002 (≈ 0.00508 µM) | 0.03 (≈ 0.0763 µM) |  |  |  | Nn1c(=O)c2cc(F)c(N3C[C@@H](CCO)[C@@H](CCO)C3)nc2n(C2CC2)c1=O [drawing 338]
6 |  |  |  |  | 8 (≈ 18.4 µM) | 1 (≈ 2.3 µM) | 1 (≈ 2.3 µM) | COc1c(N2CCC(C(O)C3(CO)CC3)C2)c(F)cc2c(=O)n(N)c(=O)n(C3CC3)c12 (stereo not shown) [drawing 316]
7 |  |  |  |  | 32 (≈ 74.2 µM) | 2 (≈ 4.64 µM) | 2 (≈ 4.64 µM) | COc1c(N2CCC(C(O)c3ncco3)C2)c(F)cc2c(=O)n(N)c(=O)n(C3CC3)c12 (stereo not shown) [drawing 312]
8 | 4 (≈ 9.21 µM) | 8 (≈ 18.4 µM) | 0.5 (≈ 1.15 µM) | 4 (≈ 9.21 µM) |  |  |  | COc1c(N2CCC(C(O)C3(CO)CC3)C2)c(F)cc2c(=O)n(N)c(=O)n(C3CC3)c12 (stereo not shown) [drawing 325]
9 |  |  |  |  | 64 (≈ 149 µM) | 4 (≈ 9.34 µM) | 8 (≈ 18.7 µM) | COc1c(N2CCC(C(O)C(C)(F)F)C2)c(F)cc2c(=O)n(N)c(=O)n(C3CC3)c12 (stereo not shown) [drawing 314]
10 |  |  |  |  | 16 (≈ 43.8 µM) | 0.5 (≈ 1.37 µM) | 1 (≈ 2.74 µM) | Nn1c(=O)c2cc(F)c(N3C[C@@H](CO)[C@@H](CO)C3)nc2n(C2CC2)c1=O [drawing 330]
11 | 8 (≈ 21.9 µM) | 2 (≈ 5.47 µM) | 0.5 (≈ 1.37 µM) | 4 (≈ 10.9 µM) |  |  |  | Nn1c(=O)c2cc(F)c(N3C[C@H](CO)[C@@H](CO)C3)nc2n(C2CC2)c1=O [drawing 336]
12 | 8 (≈ 19.8 µM) | 8 (≈ 19.8 µM) | 1 (≈ 2.47 µM) | 8 (≈ 19.8 µM) |  |  |  | Cc1c(N2CC3CCC(O)(CO)C3C2)c(F)cc2c(=O)n(N)c(=O)n(C3CC3)c12 (stereo not shown) [drawing 345]
13 | 2 (≈ 5.74 µM) | 2 (≈ 5.74 µM) | 0.5 (≈ 1.44 µM) | 1 (≈ 2.87 µM) |  |  |  | Cc1c(N2CCC(CO)C2)c(F)cc2c(=O)n(N)c(=O)n(C3CC3)c12 (stereo not shown) [drawing 320]
14 | 8 (≈ 19.3 µM) | 4 (≈ 9.63 µM) | 1 (≈ 2.41 µM) | 4 (≈ 9.63 µM) |  |  |  | Cc1c(N2CCC(C(O)c3ncco3)C2)c(F)cc2c(=O)n(N)c(=O)n(C3CC3)c12 (stereo not shown) [drawing 322]
15 | 4 (≈ 11.3 µM) | 4 (≈ 11.3 µM) | 0.25 (≈ 0.708 µM) | 2 (≈ 5.66 µM) |  |  |  | Nn1c(=O)c2cc(F)c(N3C[C@H](CO)[C@H](F)C3)nc2n(C2CC2)c1=O [drawing 339]
16 |  |  |  |  | 0.125 (≈ 0.318 µM) | 0.015 (≈ 0.0381 µM) | 0.06 (≈ 0.153 µM) | Nn1c(=O)c2cc(F)c(N3C[C@@H](CCO)[C@@H](CCO)C3)nc2n(C2CC2)c1=O [drawing 333]

Row | MIC (E. faecalis MGH-2) [mg/L] | MIC (S pyogenes C203) [mg/L] | MIC (S. aureus UC-76) [mg/L] | MIC (S. pneumo SV-1) [mg/L] | MIC (E. coli EC-2549) [mg/L] | MIC (H. influenzae HI-3542) [mg/L] | MIC (M. catarrhalis BC-3531) [mg/L] | SMILES
17 |  |  |  |  | 16 (≈ 38.5 µM) | 1 (≈ 2.41 µM) | 2 (≈ 4.81 µM) | Cc1c(N2CCC(C(O)c3ncco3)C2)c(F)cc2c(=O)n(N)c(=O)n(C3CC3)c12 (stereo not shown) [drawing 313]
18 | 1 (≈ 2.31 µM) | 1 (≈ 2.31 µM) | 0.06 (≈ 0.139 µM) | 0.5 (≈ 1.16 µM) |  |  |  | COc1c(N2CCC(C(O)C(F)(F)F)C2)c(F)cc2c(=O)n(N)c(=O)n(C3CC3)c12 (stereo not shown) [drawing 327]
19 |  |  |  |  | 32 (≈ 84.6 µM) | 4 (≈ 10.6 µM) | 4 (≈ 10.6 µM) | COCC1CCN(c2c(F)cc3c(=O)n(N)c(=O)n(C4CC4)c3c2OC)C1 (stereo not shown) [drawing 319]
20 |  |  |  |  | 32 (≈ 87.6 µM) | 1 (≈ 2.74 µM) | 4 (≈ 10.9 µM) | Nn1c(=O)c2cc(F)c(N3C[C@H](CO)[C@@H](CO)C3)nc2n(C2CC2)c1=O [drawing 331]
21 | 4 (≈ 10.6 µM) | 4 (≈ 10.6 µM) | 1 (≈ 2.64 µM) | 2 (≈ 5.29 µM) |  |  |  | COCC1CCN(c2c(F)cc3c(=O)n(N)c(=O)n(C4CC4)c3c2OC)C1 (stereo not shown) [drawing 328]
22 | 16 (≈ 39.4 µM) | 32 (≈ 78.7 µM) | 2 (≈ 4.92 µM) | 16 (≈ 39.4 µM) |  |  |  | Cc1c(N2C[C@](C)(CO)[C@](C)(CO)C2)c(F)cc2c(=O)n(N)c(=O)n(C3CC3)c12 [drawing 342]
23 | 16 (≈ 37.3 µM) | 8 (≈ 18.7 µM) | 2 (≈ 4.67 µM) | 8 (≈ 18.7 µM) |  |  |  | COc1c(N2CCC(C(O)C(C)(F)F)C2)c(F)cc2c(=O)n(N)c(=O)n(C3CC3)c12 (stereo not shown) [drawing 323]
24 |  |  |  |  | 32 (≈ 79.1 µM) | 4 (≈ 9.89 µM) | 4 (≈ 9.89 µM) | Cc1c(N2CC3CCC(O)(CO)C3C2)c(F)cc2c(=O)n(N)c(=O)n(C3CC3)c12 (stereo not shown) [drawing 344]
25 |  |  |  |  | 2 (≈ 4.63 µM) | 0.125 (≈ 0.289 µM) | 0.125 (≈ 0.289 µM) | COc1c(N2CCC(C(O)C(F)(F)F)C2)c(F)cc2c(=O)n(N)c(=O)n(C3CC3)c12 (stereo not shown) [drawing 318]
26 | 4 (≈ 10.9 µM) | 1 (≈ 2.74 µM) | 0.25 (≈ 0.684 µM) | 2 (≈ 5.47 µM) |  |  |  | Nn1c(=O)c2cc(F)c(N3C[C@@H](CO)[C@@H](CO)C3)nc2n(C2CC2)c1=O [drawing 335]
27 |  |  |  |  | 4 (≈ 11.5 µM) | 0.5 (≈ 1.44 µM) | 1 (≈ 2.87 µM) | Cc1c(N2CCC(CO)C2)c(F)cc2c(=O)n(N)c(=O)n(C3CC3)c12 (stereo not shown) [drawing 311]
28 |  |  |  |  | 4 (≈ 10.6 µM) | 0.5 (≈ 1.32 µM) | 1 (≈ 2.64 µM) | Cc1c(N2CCC(C(O)CO)C2)c(F)cc2c(=O)n(N)c(=O)n(C3CC3)c12 (stereo not shown) [drawing 317]
29 |  |  |  |  | 16 (≈ 47.4 µM) | 0.5 (≈ 1.48 µM) | 2 (≈ 5.93 µM) | Nn1c(=O)c2cc(F)c(N3C[C@@H](O)[C@@H](O)C3)nc2n(C2CC2)c1=O [drawing 332]
30 | 2 (≈ 5.29 µM) | 1 (≈ 2.64 µM) | 0.25 (≈ 0.661 µM) | 1 (≈ 2.64 µM) |  |  |  | Cc1c(N2CCC(C(O)CO)C2)c(F)cc2c(=O)n(N)c(=O)n(C3CC3)c12 (stereo not shown) [drawing 326]
31 |  |  |  |  | 16 (≈ 42.3 µM) | 2 (≈ 5.29 µM) | 1 (≈ 2.64 µM) | COc1c(N2CCC(CCO)C2)c(F)cc2c(=O)n(N)c(=O)n(C3CC3)c12 (stereo not shown) [drawing 315]
32 |  |  |  |  | 64 (≈ 157 µM) | 16 (≈ 39.4 µM) | 32 (≈ 78.7 µM) | Cc1c(N2C[C@](C)(CO)[C@](C)(CO)C2)c(F)cc2c(=O)n(N)c(=O)n(C3CC3)c12 [drawing 341]
